The text below walks through data of patent publication US5093351A, “Substituted indole, benzofuran and benzothiophene derivatives as 5-lipoxygenase inhibitors” (Du Pont Merck Pharmaceutical Company, priority 1989, dated 1992).

pIC50: −log10 of the molar value.

Test [1] deals with arachidonic acid-induced ear edema. As to the kind of experiment: Arachidonic acid-induced ear edema in CF1 mice, topical. The settings on record: Mus musculus, 1 h, 100 μg/ear, topical in acetone just prior to 1 mg arachidonic acid, one hour after challenge. It is filed as in vivo. As to the method: This assay indicates a specific use in the treatment of skin diseases such as psoriasis. This assay also implies a reduction in leukotrienes caused by the compounds of the invention, and indicates the use of these compounds in other diseases where the production of leukotrienes is involved in the pathological process.
The assay is a modification of the procedure described by Young et al. (J. Invest. Dermatol. (1983) 80, 48). 1 mg of arachidonic acid is applied as an acetone solution to the inner surface of the pinna of CF1 mice. Test compound dissolved in acetone is applied to the ear just prior to the arachidonic acid challenge. One hour after challenge, 6 mm disks are removed from the ear with a biopsy punch, and the weight is determined. The results are determined as a percent inhibition of the swelling which occurs in the absence of the test compound.

In the next test the target is T1, 5-lipoxygenase (Rattus norvegicus, UniProt P12527).
T1 construct: endogenous in cells; host or cells: RBL-1 (rat basophilic leukemia) cells, 10,000×g supernatant of homogenate
T1 sequence (P12527 1-673): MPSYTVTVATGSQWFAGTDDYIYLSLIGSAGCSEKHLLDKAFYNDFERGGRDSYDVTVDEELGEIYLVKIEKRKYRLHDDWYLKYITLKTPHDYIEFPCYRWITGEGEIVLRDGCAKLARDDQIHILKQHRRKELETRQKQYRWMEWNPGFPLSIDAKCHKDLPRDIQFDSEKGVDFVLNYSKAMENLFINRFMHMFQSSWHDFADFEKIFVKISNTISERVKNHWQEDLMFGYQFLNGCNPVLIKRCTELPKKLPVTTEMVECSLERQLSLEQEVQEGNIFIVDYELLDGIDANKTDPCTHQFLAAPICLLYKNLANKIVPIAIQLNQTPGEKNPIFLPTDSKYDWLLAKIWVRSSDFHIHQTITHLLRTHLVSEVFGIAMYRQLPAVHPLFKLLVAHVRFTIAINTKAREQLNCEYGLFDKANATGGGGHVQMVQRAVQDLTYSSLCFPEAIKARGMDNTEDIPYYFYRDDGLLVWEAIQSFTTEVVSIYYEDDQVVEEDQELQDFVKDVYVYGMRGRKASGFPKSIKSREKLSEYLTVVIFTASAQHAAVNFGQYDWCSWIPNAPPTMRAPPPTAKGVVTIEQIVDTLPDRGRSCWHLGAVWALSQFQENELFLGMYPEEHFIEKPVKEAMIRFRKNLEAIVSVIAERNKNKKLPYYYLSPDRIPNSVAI
As to the kind of experiment: 5-lipoxygenase inhibition, 10,000×g supernatant from homogenized rat basophilic leukemia (RBL-1) cells. The settings on record: RBL-1 10,000×g supernatant, pH 7.0, 5 min incubation with compound, 14C-arachidonic acid, 37° C., two minutes. It is filed as biochemical. The method, then: The test method is a modification of the procedure developed by Jakschik et al. (Prostaglandins (1978) 16, 733; Biochem. Biophys. Res. Commun. (1980) 95, 103; Biochem. Biophys. Res. Commun. (1981) 102, 624).
The 10,000×g supernatant from homogenized RBL-1 cells was incubated with test compound in a pH 7.0 phosphate buffer for five minutes. ^14 C-arachidonic acid was added to initiate the reaction, which was allowed to continue at 37° C. for two minutes. The reaction was stopped by freezing in a dry ice/ethanol slurry, and the 5-lipoxygenase products were separated from the substrate on silica gel columns. The amount of individual lipoxygenase products produced was determined and the percent inhibition calculated.

As to `Cn1ccc2c(O)c(Cc3ccccc3)ccc21` [Example 1a, 1-Methyl-4-hydroxy-5-phenylmethylindole], in test [1], the inhibition in vivo at 100 µg/ear is 74%. On 5-lipoxygenase, the pIC50 was 7.25.

With `Oc1c(Cc2ccccc2)ccc2sccc12` [Example 1b], in test [1], the inhibition in vivo at 100 µg/ear turned out to be 53%. Further, the negative logarithm of the IC50 (pIC50) on 5-lipoxygenase is 6.89.

Consider `Oc1c(Cc2ccccc2)ccc2occc12` [Example 1c], for which the inhibition in vivo at 100 µg/ear in test [1] was 42%. For the same molecule, the pIC50 at 5-lipoxygenase was 6.40.

As for `Oc1c(Cc2ccccc2)ccc2c1ccn2Cc1ccccc1` [Example 1d], in test [1], the inhibition in vivo at 100 µg/ear is 41%. Further, the pIC50 at 5-lipoxygenase is 7.38.

Molecule `COc1ccc(Cc2ccc3c(ccn3C)c2O)cc1` [Example 1e] had an inhibition in vivo at 100 µg/ear in test [1] of 64%.

`Cn1ccc2c(O)c(Cc3ccc4c(c3)OCO4)ccc21` [Example 1g] gave an inhibition in vivo at 100 µg/ear in test [1] of 54%.

In turn, `CC(=O)Oc1c(Cc2ccccc2)ccc2c1ccn2C` [Example 6a, 1-Methyl-4-acetoxy-5-phenylmethylindole] gave an inhibition in vivo at 100 µg/ear in test [1] of 72%. The pIC50 at 5-lipoxygenase was 6.38.

For the molecule `CC(=O)Oc1c(Cc2cccs2)ccc2c1ccn2C` [Example 6b], the inhibition in vivo at 100 µg/ear in test [1] turned out to be 54%.

As for `COc1ccc(Cc2ccc3c(ccn3C)c2OC(C)=O)cc1` [Example 6c], the inhibition in vivo at 100 µg/ear in test [1] came to 72%.

One may read the inhibition in vivo as the drop in the measured response relative to a control, in per cent. A higher inhibition in vivo goes with a response far below the control. The term pIC50 denotes −log10 of the IC50, conventionally taken in molar units.
